In US4220795A, “Cyclobutyl substituted derivatives of prostaglandin analogs” (Miles Laboratories, Inc., priority 1978, dated 1980):
Entries after “also recorded” stand apart in the source; their conditions may differ.

Assays:
[1] = system: human platelet aggregation (collagen-induced, platelet rich plasma); conditions: compared with compounds of Formula III; cited from earlier work
[2] = system: smooth muscle of the vas deferens; conditions: mammalian male reproductive system; cited from earlier work
[3] = system: female reproductive system; conditions: cited from earlier work
gastric secretion = test: Effects on Gastric Secretion in the Rat (Test B); assay type: in vivo; conditions: pylorus ligated, s.c. 2 x 1.5 mg/kg, 4 hr
Source text: B. Evaluation of the Effects of Prostaglandin Analogs III on Gastric Secretion in the Rat
A procedure based on that described by Lipmann (J. Pharm. Pharmacol., 21:335 [1968]) was used to assess the influence of test compounds on gastric secretion. Rats of one sex weighing 150 to 200 g were randomly divided into groups of six animals each and fasted for 48 hr previous to the experiments, water being available ad limitum. The animals were anesthetized with ether, the abdomen was opened through a midline incision and the pylorus was ligated. Test compounds were diluted from stock solution so as to administer a dose of 1.5 mg/kg in a volume equivalent to 1 ml/kg. Subcutaneous injections were applied immediately after surgery and again 2 hr later, so that a total dose of 3.0 mg/kg was administered. Dilutions were made with phosphate buffer (pH 7.38) as recommended by Lee et al. (Prostaglandins 3:29 [1973]), in order to insure adequate stability of drugs at the subcutaneous depot. Each compound was tested in one group of rats; an additional control group received only the vehicle.
Four hr after pyloric ligation the animals were killed with ether, the cardias ligated and the stomachs removed. The volume of gastric secretion was measured and the contents centrifuged at 5000 rpm for 10 min. Total acid in the supernatant was titrated against a 0.1 N sodium hydroxide solution and the amount expressed in mEq.
Volume and total acid values of the treated group were compared with those of the controls by the "T" test. Anti-secretory activity was scored according to the following scale: […]

rat uterus = test: Effects on the Rat Uterus (Test F); conditions: rat uterus segments, 0.001 to 10.0 mcg/ml, 29° C.
Protocol: F. Evaluation of the Effects of Prostaglandin Analogs III on the Rat Uterus
The uterine stimulant effect of test compounds is determined in segments of uterus obtained from rats (140-160 g) pretreated subcutaneously with 1 mg/kg of diethylstibesterol 18 hr before the experiment. The tissues are placed in 10 ml chambers filled with de-Jalon solution at 29° C. and bubbled with 95% O2 and 5% CO2, and prepared for isometric recording with force displacement transducers. Preparations are stretched to an initial tension of 1 g and are left undisturbed for 30 min, after which two responses to 1 mcg/ml of carbachol added to the bath at a 10 min interval, are obtained (the value of the second response is recorded). Responses to increasing concentrations of the test compound (0.001 to 10.0 mcg/ml with one log intervals) are then recorded every 10 min. Preparations are washed four times after each response. All doses of drugs are administered in a 0.1 ml volume. Since it has been observed that the magnitude of the second response to carbachol, which is approximately 10% greater than the first, is close to the maximal response of the tissue, such value is taken as a measure of the sensititity of the particular segment. Responses to each concentration of the test compound are expressed in terms of percentage of the second response to carbachol and the ED50 (dose producing a response of 50% that of carbachol) is calculated graphically. Activity is scored according to the following scale: […]

femoral blood flow = test: Effects on Femoral Blood Flow in the Dog (Test C); assay type: in vivo, dog (mongrel); conditions: anesthetized dog, intraarterial 0.001 to 10 mcg
Protocol: C. Evaluation of the Effects of Prostaglandin Analogs III on the Femoral Blood Flow in the Dog
The peripheral vasodilator or constrictor effects of test compounds were determined in mongrel dogs of either sex, weighing between 10 and 20 kg anesthestized intravenously with 35 mg/kg of sodium pentobarbital. An external iliac artery was dissected immediately above the femoral arch for a length of approximately 5 cm and a previously calibrated, non-connulating electromagnetic flowmeter sensor with a lumen between 2.5 and 3.5 mm was placed snugly around the vessel. Cannulas were placed in a branch of the artery arising distally to the location of the flowmeter sensor for intraarterial drug administrations, in the contralateral femoral artery for systemic blood pressure recordings and in the trachea for artificial respiration with room air. Femoral blood flow and systemic blood pressure were continuously recorded with an electromagnetic flowmeter and pressure transducer, respectively.
After an adequate control period, test compounds were injected intraarterially at one log-spaced doses ranging from 0.001 to 10 mcg., in a volume of 0.5 ml and at 5 to 10 min intervals. Maximum changes in bloodflow, as well as any variations in blood pressure, were tabulated for each dose in absolute values (ml/min and mmHg). The calculations were made taking as control values those existing immediately before administration of each dose. The direction of the observed change (+ for increase and - for decrease) was also noted. The dose changing bloodflow by 100 ml/min (ED100 ml/min) was calculated graphically and was used for scoring activity as follows: […]

blood pressure = test: Effects on Blood Pressure and Heart Rate in the Anesthetized Cat (Test D); assay type: in vivo; conditions: i.v. 0.01 to 10.0 mcg/kg, scored on hypotension
Protocol: D. Evaluation of the Effects of Prostaglandin Analogs III on Blood Pressure and Heart Rate in the Anesthetized Cat
The acute effects of test compounds on blood pressure and heart rate were determined in cats of either sex anesthetized with a mixture of pentobarbital sodium (35 mg/kg, i.v.) and barbital sodium (100 mg/kg, i.v.). Cannulas were placed in the trachea to allow adequate spontaneous ventilation, in a femoral artery for blood pressure recording with a strain gage transducer, and in a saphenous vein for drug administration. Heart rate was recorded by means of a cardiotachometer driven by the R wave of the electrocardiogram. After a period of 10 min of stable recordings of blood pressure and heart rate, the test compound was administered intravenously at doses increasing from 0.01 to 10.0 mcg/kg, spaced one log and injected at 10 min intervals. All doses were injected in a volume of 0.1 ml/kg. Modifications of blood pressure and heart rate induced by the test compound were expressed both in absolute units (mmHg and beats/min) and as percent of values recorded immediately before administration of each dose. Biphasic responses were tabulated in the order in which they occur. The direction of the observed changes was also noted (+ for increase and - for decrease).
Activity of compounds in this test was judged only on the basis of the degree of hypotension observed. Thus, the ED50 mmHg (dose decreasing blood pressure by 50 mmHg) was calculated graphically and the compound scored according to the following scale: […]

[4] = system: blood pressure (hypertensive rat); test: Effects on Blood Pressure in the Hypertensive Rat (Test E); assay type: in vivo; design: key: 0: Not significant at any time interval; 1: Significant at one time interval; 2: Significant at two time intervals; 3: Significant at three time intervals; 4: Significant at all four intervals; conditions: 1 mg/kg intraperitoneal, 2, 4, 6 and 8 hr
Protocol: E. Evaluation of the Effects of Prostaglandin Analogs III on Blood Pressure in the Hypertensive Rat
The acute antihypertensive activity of test compounds is determined in rats made hypertensive by the procedure of Grollman (A. Proc. Soc. Exper. Biol. Med., 57:102, [1944]). Female rats weighing between 60 and 100 g are anesthetized with ether, the right kidney approached through a flank retroperitoneal incision, decapsulated and tied with a figure-of-eight ligature. The animals are left to recover and two weeks later are again anesthetized and the contralateral kidney removed. Four weeks after the second operation the rats are subjected to indirect blood pressure measurements and those showing systolic pressure values greater than 160 mmHg are selected for drug testing.
Blood pressure is measured in the tail with an inflatable occluding cuff placed at the base of the extremity and a pulse detector located distally. The cuff is inflated to approximately 300 mmHg and is slowly deflated until pulsations appear, indicating the level of systolic pressure; diastolic pressure is not recorded by this procedure. All measurements are carried out in unanesthetized, unsedated animals maintained in a warm environment during the recording procedure and for at least 6 hr before. In all cases, three pressure readings are obtained in succession and mean values are calculated thereof.
Experiments are carried out in groups of five hypertensive rats in which systolic pressure is determined immediately before and 2, 4, 6 and 8 hr after the intraperitoneal administration of the test compound at a dose of 1 mg/kg. Drugs are diluted from stock solutions with phosphate buffer (Lee et al., Prostaglandins 3:29 [1973]), so as to inject this quantity in a volume of 1 ml/kg. Changes from control blood pressure values are calculated for each interval both in mmHg and in per-cent, and evaluated for significance by means of Wilcoxon's signed rank test (Wilcoxon and Wilcox, Some rapid approximate statistical procedures, Lederle Laboratories, Pearl River [1964]).

CCCCC[C@H](O)/C=C/[C@H]1[C@H](O)CC(=O)[C@@H]1CCCCCCC(=O)O [PGE1]
inhibition of platelet aggregation, natural prostaglandins, in words [1]: displays a similar activity | contraction of the vas deferens [2]: contracts the smooth muscle of the vas deferens

CCCCC[C@H](O)/C=C/[C@@H]1[C@@H](C/C=C\CCCC(=O)O)[C@@H](O)C[C@H]1O [PGF2]
effects on uterus, fertility, gestation and labor [3]: exerts potent oxytocic effects in inducing labor

CCCCC[C@H](O)/C=C/[C@@H]1[C@@H](C/C=C\CCCC(=O)O)[C@@H](O)C[C@H]1O [PGF2α]
effects on uterus, fertility, gestation and labor [3]: has contragestational effects; also recorded: induces spontaneous abortions in early pregnancy

CCC1CC(C(/C=C/C2C=CC(=O)C2CCCCCCC(=O)OC)OC(C)=O)C1 (centres unmarked) [TR-4281, Methyl 15RS-acetoxy-16,18-methano-9-oxoprosta-10,13E-dien-1-oate]
Activity value, Test B: Inhibition of a Rodent Gastric Secretion (% decrease in acidity) (gastric secretion): 0 (<26) | Activity value, Test F: Effects on Rat Uterus (ED50, response of 50% that of carbachol) (rat uterus): 0 (>10)

CCC1CC([C@H](O)/C=C/C2C(O)CC(O)C2CCCCCCC(=O)OC)C1 (stereo partly drawn) [TR-4624, Methyl 16,18-methano-9α,1α,15S-trihydroxyprost-13E-en-1-oate]
Activity value, Test B: Inhibition of a Rodent Gastric Secretion (% decrease in acidity) (gastric secretion): 0 (<26) | Activity value, Test C: Increase in Canidae Femoral Blood Flow (ED100 ml/min) (femoral blood flow): 0 (>10.0) | Activity value, Test D: Increase in Normal Feline Blood Pressure and Heart Rate (ED50 mmHg) (blood pressure): 0 (>10.1) | Activity value, Test E: Effects on Blood Pressure in Hypertensive Rat (blood pressure decrease) [4]: 0 | Activity value, Test F: Effects on Rat Uterus (ED50, response of 50% that of carbachol) (rat uterus): 0 (>10)

CCC1CC([C@H](O)/C=C/C2C(O)CC(O)C2CCCCCCC(=O)OC)C1 (stereo partly drawn) [TR-4625, Methyl 16,18-methano-9β,11α,15S-trihydroxyprost-13E-en-1-oate]
Activity value, Test B: Inhibition of a Rodent Gastric Secretion (% decrease in acidity) (gastric secretion): 0 (<26) | Activity value, Test C: Increase in Canidae Femoral Blood Flow (ED100 ml/min) (femoral blood flow): 0 (>10.0) | Activity value, Test D: Increase in Normal Feline Blood Pressure and Heart Rate (ED50 mmHg) (blood pressure): 0 (>10.1) | Activity value, Test E: Effects on Blood Pressure in Hypertensive Rat (blood pressure decrease) [4]: 0 | Activity value, Test F: Effects on Rat Uterus (ED50, response of 50% that of carbachol) (rat uterus): 0 (>10)

CCC1CC([C@H](O)/C=C/C2C(O)CC(O)C2CCCCCCCO)C1 (stereo partly drawn) [TR-4627, 16,18-Methanoprost-13E-en-1,9β,11α,15S-tetraol]
Activity value, Test B: Inhibition of a Rodent Gastric Secretion (% decrease in acidity) (gastric secretion): 0 (<26) | Activity value, Test F: Effects on Rat Uterus (ED50, response of 50% that of carbachol) (rat uterus): 0 (>10)

CCC1CC(C)([C@@H](O)/C=C/C2C=CC(=O)C2CCCCCCC(=O)OC)C1 (stereo partly drawn) [TR-4695, Methyl 15S-hydroxy-16,18-methano-16-methyl-9-oxoprosta-10,13E-dien-1-oate]
Activity value, Test B: Inhibition of a Rodent Gastric Secretion (% decrease in acidity) (gastric secretion): 0 (<26) | Activity value, Test F: Effects on Rat Uterus (ED50, response of 50% that of carbachol) (rat uterus): 0 (>10)
